Data published in the supplement of paper PMC10733146.

Experiments:
Test in all cases: viability relative to DMSO control (fraction); higher = less drug effect (more viable cells)
Settings in all cases: 48 h
[1] = system: primary ALL patient cells (S048)
Procedure, shortened: (§1)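 In 384-well plates with compounds pre-plated at five concentrations (one well per concentration), primary mononuclear tumour cells were plated at 4 × 10^4 cells per well. The cells came from blood or bone marrow by Ficoll isolation or from processed lymph node, and were used fresh or cryopreserved. Culture ran for 48 h at 37 °C and 5% CO2 in RPMI-1640 containing penicillin/streptomycin, L-glutamine and human serum. Viability was read as CellTiter-Glo luminescence, normalised to the median of 16 inner DMSO wells.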

[2] = system: primary ALL patient cells (S088)
Procedure, shortened: as §1

[3] = system: primary AML patient cells (S002)
Procedure, shortened: as §1

[4] = system: primary AML patient cells (S009)
Procedure, shortened: as §1

[5] = system: primary AML patient cells (S017)
Procedure, shortened: as §1

[6] = system: primary AML patient cells (S019)
Procedure, shortened: as §1

[7] = system: primary AML patient cells (S021)
Procedure, shortened: as §1

[8] = system: primary AML patient cells (S025)
Procedure, shortened: as §1

[9] = system: primary AML patient cells (S060)
Procedure, shortened: as §1

[10] = system: primary AML patient cells (S071)
Procedure, shortened: as §1

[11] = system: primary AML patient cells (S072)
Procedure, shortened: as §1

[12] = system: primary AML patient cells (S079)
Procedure, shortened: as §1

[13] = system: primary AML patient cells (S089)
Procedure, shortened: as §1

[14] = system: primary AML patient cells (S091)
Procedure, shortened: as §1

[15] = system: primary B-PLL patient cells (S016)
Procedure, shortened: as §1

[16] = system: primary DLBCL patient cells (S082)
Procedure, shortened: as §1

[17] = system: primary FL patient cells (S022)
Procedure, shortened: as §1

[18] = system: primary FL patient cells (S087)
Procedure, shortened: as §1

[19] = system: primary MCL patient cells (S053)
Procedure, shortened: as §1

`Cc1sc2c(c1C)C(c1ccc(Cl)cc1)=N[C@@H](CC(=O)Nc1ccc(O)cc1)c1nnc(C)n1-2` [OTX015] showed a viability ([1]; 0.016 µM) of 1.1, a viability ([1]; 0.08 µM) of 1.04 and a viability ([1]; 0.4 µM) of 0.552. The viability ([1]; 2 µM) was 0.305, the viability ([1]; 10 µM) was 0.241 and the viability ([2]; 0.016 µM) was 0.862. The viability ([2]; 0.08 µM) was 0.726, the viability ([2]; 0.4 µM) was 0.448 and the viability ([2]; 2 µM) was 0.394. For the same compound, the viability ([2]; 10 µM) was 0.325, the viability ([3]; 0.016 µM) was 0.853 and the viability ([3]; 0.08 µM) was 0.565. The viability ([3]; 0.4 µM) was 0.396, the viability ([3]; 2 µM) was 0.315 and the viability ([3]; 10 µM) was 0.317. It also gave a viability ([4]; 0.016 µM) of 0.859, a viability ([4]; 0.08 µM) of 0.752 and a viability ([4]; 0.4 µM) of 0.6. It also gave a viability ([4]; 2 µM) of 0.489, a viability ([4]; 10 µM) of 0.457 and a viability ([5]; 0.016 µM) of 0.96. It also gave a viability ([5]; 0.08 µM) of 0.937, a viability ([5]; 0.4 µM) of 0.573 and a viability ([5]; 2 µM) of 0.391. For the same compound, the viability ([5]; 10 µM) was 0.354, the viability ([6]; 0.016 µM) was 1.14 and the viability ([6]; 0.08 µM) was 1.12. For the same compound, the viability ([6]; 0.4 µM) was 1.08, the viability ([6]; 2 µM) was 0.985 and the viability ([6]; 10 µM) was 0.965. The viability ([7]; 0.016 µM) was 0.937, the viability ([7]; 0.08 µM) was 1.02 and the viability ([7]; 0.4 µM) was 0.894. The viability ([7]; 2 µM) was 0.815, the viability ([7]; 10 µM) was 0.634 and the viability ([8]; 0.016 µM) was 0.87. For the same compound, the viability ([8]; 0.08 µM) was 0.971, the viability ([8]; 0.4 µM) was 0.767 and the viability ([8]; 2 µM) was 0.629. It also gave a viability ([8]; 10 µM) of 0.549, a viability ([9]; 0.016 µM) of 1.01 and a viability ([9]; 0.08 µM) of 1.03. The viability ([9]; 0.4 µM) was 0.775, the viability ([9]; 2 µM) was 0.501 and the viability ([9]; 10 µM) was 0.344. For the same compound, the viability ([10]; 0.016 µM) was 0.988, the viability ([10]; 0.08 µM) was 1.08 and the viability ([10]; 0.4 µM) was 0.994. It also gave a viability ([10]; 2 µM) of 0.829, a viability ([10]; 10 µM) of 0.722 and a viability ([11]; 0.016 µM) of 0.806. The viability ([11]; 0.08 µM) was 0.826, the viability ([11]; 0.4 µM) was 0.604 and the viability ([11]; 2 µM) was 0.375. The viability ([11]; 10 µM) was 0.364, the viability ([12]; 0.016 µM) was 0.812 and the viability ([12]; 0.08 µM) was 0.757. It also gave a viability ([12]; 0.4 µM) of 0.568, a viability ([12]; 2 µM) of 0.44 and a viability ([12]; 10 µM) of 0.403. The viability ([13]; 0.016 µM) was 0.894, the viability ([13]; 0.08 µM) was 0.848 and the viability ([13]; 0.4 µM) was 0.546. The viability ([13]; 2 µM) was 0.398, the viability ([13]; 10 µM) was 0.311 and the viability ([14]; 0.016 µM) was 0.741. For the same compound, the viability ([14]; 0.08 µM) was 0.478, the viability ([14]; 0.4 µM) was 0.276 and the viability ([14]; 2 µM) was 0.25. For the same compound, the viability ([14]; 10 µM) was 0.254, the viability ([15]; 0.016 µM) was 1.06 and the viability ([15]; 0.08 µM) was 1.15. The viability ([15]; 0.4 µM) was 0.891, the viability ([15]; 2 µM) was 0.711 and the viability ([15]; 10 µM) was 0.687. The viability ([16]; 0.016 µM) was 0.872, the viability ([16]; 0.08 µM) was 0.674 and the viability ([16]; 0.4 µM) was 0.244. For the same compound, the viability ([16]; 2 µM) was 0.116, the viability ([16]; 10 µM) was 0.0851 and the viability ([17]; 0.016 µM) was 0.981. For the same compound, the viability ([17]; 0.08 µM) was 0.971, the viability ([17]; 0.4 µM) was 0.955 and the viability ([17]; 2 µM) was 0.897. For the same compound, the viability ([17]; 10 µM) was 0.874, the viability ([18]; 0.016 µM) was 1.02 and the viability ([18]; 0.08 µM) was 1.01. The viability ([18]; 0.4 µM) was 0.913, the viability ([18]; 2 µM) was 0.866 and the viability ([18]; 10 µM) was 0.805. It also gave a viability ([19]; 0.016 µM) of 0.972, a viability ([19]; 0.08 µM) of 0.949 and a viability ([19]; 0.4 µM) of 0.689. For the same compound, the viability ([19]; 2 µM) was 0.546 and the viability ([19]; 10 µM) was 0.477.
